# Read-outs that look alike come from different tables or passages of the source.
# Key:
# [1] = test system: P. aeruginosa; test: MIC, broth microdilution, CDC/FDA Antibiotic Resistance Isolate Bank (Example 7, Tables 10, 15); assay type: cell-based
# [2] = test system: Escherichia coli; test: MIC, broth microdilution, standard strains and Japanese clinical isolates (Example 5, Table 4); assay type: cell-based
# [3] = test system: Klebsiella pneumoniae; test: as above; assay type: cell-based
# [4] = test system: Enterobacter cloacae; test: as above; assay type: cell-based
# [5] = test system: Enterobacter hormaechei; test: as above; assay type: cell-based; details: ATCCBAA2082; KUB4001 Enterobacter hormaechei ATCC BAA-2082, KPC-2
# [6] = test system: Providencia rettgeri; test: as above; assay type: cell-based; details: ATCCBAA2525; KUB4010 Providencia rettgeri ATCC BAA-2525, OXA-181
# [7] = test system: 53 CRE and CPE strains; test: MICrange, MIC50, MIC80, MIC90 for 53 bacterial isolates (Example 5, Table 5); assay type: cell-based; details: 53 bacterial isolates
# [8] = test system: CRE and CPE strains; test: MIC, broth microdilution, standard strains and Japanese clinical isolates (Example 5, Table 4 continued; organism of each KUB strain not given); assay type: cell-based
# [9] = test system: Enterobacterales; test: MIC, broth microdilution, CDC/FDA Antibiotic Resistance Isolate Bank (Example 7, Tables 8, 11, 12); assay type: cell-based
# [10] = test system: A. baumannii; test: MIC, broth microdilution, CDC/FDA Antibiotic Resistance Isolate Bank (Example 7, Tables 9, 13, 14); assay type: cell-based, Acinetobacter baumannii
# [11] = test system: A. baumannii; test: MIC, broth microdilution, 6 strains (Example 6, Table 7); assay type: cell-based
compound,measurement,setting,value
O=C(O)c1cn(C2CC2)c2cc(N3CCNCC3)c(F)cc2c1=O [Ciyprofloxacin],MIC,"[1]; P. aeruginosa KUB No. 5681, AR Bank # 248",8 mg/L
same,MIC,"[1]; P. aeruginosa KUB No. 5684, AR Bank # 251",4 mg/L
same,MIC,"[1]; P. aeruginosa KUB No. 5685, AR Bank # 252",8 mg/L
same,MIC,"[1]; P. aeruginosa KUB No. 5694, AR Bank # 261",2 mg/L
same,MIC,"[1]; P. aeruginosa KUB No. 5695, AR Bank # 262",0.5 mg/L
same,MIC,"[1]; P. aeruginosa KUB No. 5696, AR Bank # 263",1 mg/L
same,MIC,"[1]; P. aeruginosa KUB No. 5700, AR Bank # 267",8 mg/L
same,MIC,"[1]; P. aeruginosa KUB No. 5701, AR Bank # 268",4 mg/L
same,MIC,"[1]; P. aeruginosa KUB No. 5703, AR Bank # 270",8 mg/L
"C[C@@H](O)[C@H]1C(=O)N2C(C(=O)O)=C(SCCN=CN)C[C@H]12 [Imipenem, imipenem]",MIC,"[2]; ATCCBAA2452, KUB4005 Escherichia coli ATCC BAA-2452, NDM-1",4 mg/L
same,MIC,"[2]; ATCCBAA2471, KUB4007 Escherichia coli ATCC BAA-2471, NDM-6",32 mg/L
same,MIC,"[3]; ATCCBAA1898, KUB3996 Klebsiella pneumoniae ATCC BAA-1898, KPC-2",32 mg/L
same,MIC,"[3]; ATCCBAA1899, KUB3997 Klebsiella pneumoniae ATCC BAA-1899, KPC-2",8 mg/L
same,MIC,"[3]; ATCCBAA1900, KUB3998 Klebsiella pneumoniae ATCC BAA-1900, KPC-3",32 mg/L
same,MIC,"[3]; ATCCBAA1904, KUB3999 Klebsiella pneumoniae ATCC BAA-1904, KPC-3",4 mg/L
same,MIC,"[3]; ATCCBAA2078, KUB4000 Klebsiella pneumoniae ATCC BAA-2078, KPC-3",8 mg/L
same,MIC,"[3]; ATCCBAA2146, KUB4011 Klebsiella pneumoniae ATCC BAA-2146, NDM-1",> 32 mg/L
same,MIC,"[3]; ATCCBAA2342, KUB4003 Klebsiella pneumoniae ATCC BAA-2342, KPC-3",8 mg/L
same,MIC,"[3]; ATCCBAA2343, KUB4004 Klebsiella pneumoniae ATCC BAA-2343, KPC-3",16 mg/L
same,MIC,"[3]; ATCCBAA2472, KUB4008 Klebsiella pneumoniae subsp. Pneumoniae ATCC BAA-2472, NDM-1",32 mg/L
same,MIC,"[3]; ATCCBAA2473, KUB4009 Klebsiella pneumoniae ATCC BAA-2473, NDM-1",32 mg/L
same,MIC,"[3]; KUB3631 Klebsiella pneumoniae Clinical isolate, IMP-1",1 mg/L
same,MIC,"[3]; KUB3633 Klebsiella pneumoniae Clinical isolate, IMP-6",0.12 mg/L
same,MIC,"[3]; KUB3634 Klebsiella pneumoniae Clinical isolate, IMP-6",0.12 mg/L
same,MIC,"[3]; KUB3635 Klebsiella pneumoniae Clinical isolate, IMP-1",> 32 mg/L
same,MIC,"[4]; ATCCBAA2341, KUB4002 Enterobacter cloacae ATCC BAA-2341, KPC-3",16 mg/L
same,MIC,"[4]; ATCCBAA2468, KUB4006 Enterobacter cloacae ATCC BAA-2468, NDM-1",> 32 mg/L
same,MIC,[5],32 mg/L
same,MIC,[6],4 mg/L
same,MIC50,[7]; read-out: MIC50,4 mg/L
same,MIC80,[7]; read-out: MIC80,32 mg/L
same,MIC90,[7]; read-out: MIC90,32 mg/L
same,MIC,"[8]; strain KUB3148, carbapenemase gene KPC-3, read-out: MIC",1 mg/L
same,MIC,"[8]; strain KUB3149, carbapenemase gene NDM-1, read-out: MIC",4 mg/L
same,MIC,"[8]; strain KUB3150, carbapenemase gene OXA-48, read-out: MIC",0.5 mg/L
same,MIC,"[8]; strain KUB3151, carbapenemase gene IMP-1, read-out: MIC",0.5 mg/L
same,MIC,"[8]; strain KUB3152, carbapenemase gene KPC-2, read-out: MIC",8 mg/L
same,MIC,"[8]; strain KUB3153, carbapenemase gene KPC-3, read-out: MIC",16 mg/L
same,MIC,"[8]; strain KUB3154, carbapenemase gene KPC-2, read-out: MIC",1 mg/L
same,MIC,"[8]; strain KUB3163, carbapenemase gene IMP-1",2 mg/L
same,MIC,"[8]; strain KUB3606, carbapenemase gene KPC-38",> 32 mg/L
same,MIC,"[8]; strain KUB3620, carbapenemase gene -",32 mg/L
same,MIC,"[8]; strain KUB3628, carbapenemase gene IMP-1",32 mg/L
same,MIC,"[8]; strain KUB3629, carbapenemase gene IMP-1",8 mg/L
C[C@H]1COc2c(N3CCN(C)CC3)c(F)cc3c(=O)c(C(=O)O)cn1c23 [Levoflexacin],MIC,"[9]; Enterobacter aerogenes, KUB No. 5559, AR Bank # 62",2 mg/L
same,MIC,"[9]; Enterobacter aerogenes, KUB No. 5571, AR Bank # 74",0.12 mg/L
same,MIC,"[9]; Enterobacter cloacae, KUB No. 5562, AR Bank # 65",0.12 mg/L
same,MIC,"[9]; Enterobacter cloacae, KUB No. 5569, AR Bank # 72",0.5 mg/L
same,MIC,"[9]; Enterobacter cloacae, KUB No. 5570, AR Bank # 73",0.25 mg/L
same,MIC,"[9]; Enterobacter cloacae, KUB No. 5590, AR Bank # 93",4 mg/L
same,MIC,"[9]; Escherichia coli, KUB No. 5558, AR Bank # 61",0.12 mg/L
same,MIC,"[9]; Escherichia coli, KUB No. 5564, AR Bank # 67",32 mg/L
same,MIC,"[9]; Escherichia coli, KUB No. 5566, AR Bank # 69",0.12 mg/L
same,MIC,"[9]; Escherichia coli, KUB No. 5574, AR Bank # 77",0.06 mg/L
same,MIC,"[9]; Escherichia coli, KUB No. 5578, AR Bank # 81",32 mg/L
same,MIC,"[9]; Escherichia coli, KUB No. 5581, AR Bank # 84",64 mg/L
same,MIC,"[9]; Escherichia coli, KUB No. 5582, AR Bank # 85",32 mg/L
same,MIC,"[9]; Escherichia coli, KUB No. 5583, AR Bank # 86",8 mg/L
same,MIC,"[9]; Escherichia coli, KUB No. 5586, AR Bank # 89",0.12 mg/L
same,MIC,"[9]; Klebsiella oxytoca, KUB No. 5568, AR Bank # 71",0.5 mg/L
same,MIC,"[9]; Klebsiella ozaenae, KUB No. 5593, AR Bank # 96",32 mg/L
same,MIC,"[9]; Klebsiella pneumoniae, KUB No. 5563, AR Bank # 66",64 mg/L
same,MIC,"[9]; Klebsiella pneumoniae, KUB No. 5565, AR Bank # 68",64 mg/L
same,MIC,"[9]; Klebsiella pneumoniae, KUB No. 5572, AR Bank # 75",>64 mg/L
same,MIC,"[9]; Klebsiella pneumoniae, KUB No. 5573, AR Bank # 76",1 mg/L
same,MIC,"[9]; Klebsiella pneumoniae, KUB No. 5576, AR Bank # 79",64 mg/L
same,MIC,"[9]; Klebsiella pneumoniae, KUB No. 5577, AR Bank # 80",0.12 mg/L
same,MIC,"[9]; Klebsiella pneumoniae, KUB No. 5584, AR Bank # 87",>64 mg/L
same,MIC,"[9]; Klebsiella pneumoniae, KUB No. 5594, AR Bank # 97",>64 mg/L
same,MIC,"[9]; Klebsiella pneumoniae, KUB No. 5595, AR Bank # 98",64 mg/L
same,MIC,"[9]; Providencia rettgeri, KUB No. 5579, AR Bank # 82",0.25 mg/L
same,MIC,"[9]; Serratia marcescens, KUB No. 5588, AR Bank # 91",0.25 mg/L
C[C@H]1COc2c(N3CCN(C)CC3)c(F)cc3c(=O)c(C(=O)O)cn1c23 [Levotloxacin],MIC,"[10]; A. baumannii KUB No. 5567, AR Bank #70, OXA-58, OXA-100",4 mg/L
same,MIC,"[10]; A. baumannii KUB No. 5575, AR Bank #78, OXA-71",32 mg/L
same,MIC,"[10]; A. baumannii KUB No. 5580, AR Bank #83, OXA-23, OXA-69, NDM-1",8 mg/L
same,MIC,"[10]; A. baumannii KUB No. 5585, AR Bank #88, OXA-64, NDM-1",8 mg/L
same,MIC,"[10]; A. baumannii KUB No. 5598, AR Bank #101, OXA-24, OXA-65",16 mg/L
same,MIC,"[10]; A. baumannii KUB No. 5599, AR Bank #102, OXA-66",8 mg/L
same,MIC,"[10]; A. baumannii KUB No. 5706, AR Bank #273, OXA-23, OXA-66",64 mg/L
same,MIC,"[10]; A. baumannii KUB No. 5707, AR Bank #274, OXA-66, OXA-72",16 mg/L
same,MIC,"[10]; A. baumannii KUB No. 5708, AR Bank #275, OXA-23, OXA-66",8 mg/L
same,MIC,"[10]; A. baumannii KUB No. 5709, AR Bank #276, no carbapenemase genes (-)",16 mg/L
same,MIC,"[10]; A. baumannii KUB No. 5710, AR Bank #277, OXA-24, OXA-65",16 mg/L
same,MIC,"[10]; A. baumannii KUB No. 5711, AR Bank #278, OXA-23, OXA-66",8 mg/L
same,MIC,"[10]; A. baumannii KUB No. 5712, AR Bank #279, OXA-23, OXA-66",8 mg/L
same,MIC,"[10]; A. baumannii KUB No. 5713, AR Bank #280, OXA-66",16 mg/L
same,MIC,"[10]; A. baumannii KUB No. 5714, AR Bank #281, OXA-82",8 mg/L
same,MIC,"[10]; A. baumannii KUB No. 5715, AR Bank #282, OXA-23, OXA-66",8 mg/L
same,MIC,"[10]; A. baumannii KUB No. 5716, AR Bank #283, OXA-23, OXA-66",16 mg/L
same,MIC,"[10]; A. baumannii KUB No. 5717, AR Bank #284, OXA-24, OXA-65",16 mg/L
same,MIC,"[10]; A. baumannii KUB No. 5718, AR Bank #285, OXA-24, OXA-65",64 mg/L
Colistin sulfate,MIC,"[11]; A. baumannii strain with AMR gene ADC-25, OXA-23, OXA-66, TEM-ID, Carbapenem-resistant",1 mg/L
same,MIC,"[11]; A. baumannii strain with AMR gene ADC-25, OXA-66, TEM-1D, Carbapenem-susceptible",2 mg/L
same,MIC,"[11]; A. baumannii strain with AMR gene ADC-25, XA-23, OXA-66, strA, strB, sul2, TEM-1D, Carbapenem-resistant",1 mg/L
same,MIC,"[11]; A. baumannii strain with AMR gene NDM-1, OXA-64, Carbapenem-resistant",1 mg/L
same,MIC,"[11]; A. baumannii strain with AMR gene OXA-23, OXA-69, TEM-1D, Carbapenem-resistant",1 mg/L
same,MIC,"[11]; A. baumannii strain with AMR gene OXA-24, OXA-65, Carbapenem-resistant",1 mg/L
